Among the data in patent publication US8163909B2, “Substituted hydroxyethyl amine compounds as beta-secretase modulators and methods of use” (Amgen Inc., priority 2007, dated 2012) are IC50, RLM and HLM values, retold here.

For series [1], the target named is Beta Secretase enzyme (BACE) (Homo sapiens, UniProt P56817). Nature of the series: In vitro enzymatic BACE FRET (fluorescence resonance energy transfer) assay.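 Note: fluorescence read after 1 h with 50 nM quenched peptide substrate spanning the BACE cleavage site, in pH 4.2 acetate buffer containing 10% DMSO and nonionic detergent.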 The format is biochemical. The following applies: Table 2; read-out: BACE1 FRET assay.
For series [2], the system named is Aβ40 in conditioned medium of cells stably expressing Amyloid Precursor Protein (APP). Nature of the series: In vitro BACE cell-based assay (Aβ40 in conditioned medium, sandwich ELISA).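 Note: compounds added as a dilution series, secreted peptide quantified by europium time-resolved fluorescence readout, potency fitted from percent of control versus compound concentration.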 The conditions noted are these: Homo sapiens, HEK293, Table 2; HEK cells; read-out: HEK cell assay.
The next series deals with CYP3A4 (CYP3A) (Homo sapiens, UniProt P08684). Nature of the series: in vitro. The following applies: microsomes, pH 7.4.
Series [3] can be described thus: Microsomal stability assay, rat liver microsomes.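 Note: rat liver microsomes (0.25 mg/mL) with about 1 µM compound plus 1 mM NADPH, pH 7.4, 37 °C for 30 min, parent left measured by LC-MS/MS against 0 min.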 The conditions noted are these: rat liver microsomal data. In general terms: Liver microsomes are vesicles of endoplasmic reticulum, rich in cytochrome P450 enzymes.
Series [4] in a line: Microsomal stability assay, human liver microsomes.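 Note: pooled human liver microsomes at 0.25 mg/mL with 1 µM compound and NADPH at 37 °C, pH 7.4, for 30 min, unchanged parent quantified by LC-MS/MS against the 0 min sample.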 The conditions noted are these: human liver microsomal data.
The next series deals with CYP2D6 (Homo sapiens, UniProt P10635). Nature of the series: CYP2D6 inhibition assay (bufuralol, pooled human liver microsomes). The conditions noted are these: 2D6 IC50, CYP enzyme inhibition.
CYP2D6, sequence (P10635 whole entry): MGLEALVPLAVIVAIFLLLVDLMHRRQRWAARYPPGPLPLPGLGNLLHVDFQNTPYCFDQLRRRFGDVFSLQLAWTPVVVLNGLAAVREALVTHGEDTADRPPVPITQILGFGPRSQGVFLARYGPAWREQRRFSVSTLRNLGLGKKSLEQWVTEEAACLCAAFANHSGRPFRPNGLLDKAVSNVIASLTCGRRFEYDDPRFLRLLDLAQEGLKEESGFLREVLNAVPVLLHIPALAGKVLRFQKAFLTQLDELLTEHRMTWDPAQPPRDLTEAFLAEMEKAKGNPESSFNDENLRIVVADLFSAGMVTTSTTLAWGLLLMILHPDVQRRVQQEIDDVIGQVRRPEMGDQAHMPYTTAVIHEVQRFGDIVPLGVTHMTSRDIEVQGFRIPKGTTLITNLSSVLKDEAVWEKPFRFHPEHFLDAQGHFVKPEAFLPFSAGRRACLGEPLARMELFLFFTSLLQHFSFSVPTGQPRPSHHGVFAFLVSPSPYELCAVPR

Beta Secretase enzyme (BACE), sequence (P56817 46-501): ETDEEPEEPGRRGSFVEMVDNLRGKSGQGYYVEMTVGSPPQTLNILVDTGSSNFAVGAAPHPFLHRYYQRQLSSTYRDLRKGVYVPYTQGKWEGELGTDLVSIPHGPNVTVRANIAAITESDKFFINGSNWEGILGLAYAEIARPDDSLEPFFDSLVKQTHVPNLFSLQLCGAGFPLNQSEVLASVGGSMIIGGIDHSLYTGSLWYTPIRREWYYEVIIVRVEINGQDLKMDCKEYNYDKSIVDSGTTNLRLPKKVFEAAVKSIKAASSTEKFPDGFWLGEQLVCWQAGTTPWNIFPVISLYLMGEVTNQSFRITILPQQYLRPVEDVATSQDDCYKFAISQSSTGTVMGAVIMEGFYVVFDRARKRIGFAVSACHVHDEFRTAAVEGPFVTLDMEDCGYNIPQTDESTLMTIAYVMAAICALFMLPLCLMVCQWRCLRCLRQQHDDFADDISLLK
CYP3A4 (CYP3A), sequence (P08684 2-503): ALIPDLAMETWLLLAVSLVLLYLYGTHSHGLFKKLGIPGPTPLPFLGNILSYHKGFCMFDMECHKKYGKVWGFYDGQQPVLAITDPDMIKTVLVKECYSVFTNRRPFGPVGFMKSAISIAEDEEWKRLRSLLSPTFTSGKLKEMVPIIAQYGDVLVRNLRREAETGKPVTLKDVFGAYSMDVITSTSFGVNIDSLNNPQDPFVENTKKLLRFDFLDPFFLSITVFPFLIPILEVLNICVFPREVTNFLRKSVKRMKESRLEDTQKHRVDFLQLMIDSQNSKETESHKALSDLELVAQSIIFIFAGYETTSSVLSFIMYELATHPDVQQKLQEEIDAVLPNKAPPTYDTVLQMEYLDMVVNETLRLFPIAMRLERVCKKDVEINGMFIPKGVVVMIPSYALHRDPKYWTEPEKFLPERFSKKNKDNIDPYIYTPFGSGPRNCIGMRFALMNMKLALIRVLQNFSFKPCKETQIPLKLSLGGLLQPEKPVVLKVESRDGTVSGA

For the compound `C[C@@H](O)C(=O)N[C@@H](Cc1ccc(F)cc1)[C@H](O)CN[C@H]1CC2(CCC2)Oc2ncc(CC(C)(C)C)cc21` [compound 442], the IC50 in series [1] is 13 nM; in series [2] it was 16 nM; against CYP3A4 (CYP3A) it was 750 nM; against CYP2D6 it was 6750 nM. The compound further had an RLM in series [3] of 150.333 µL/min/mg. In addition, the HLM in series [4] is 117.333 µL/min/mg.

Take `CO[C@H](C)C(=O)N[C@@H](Cc1ccc2c(c1)OCO2)[C@H](O)CN[C@H]1CC2(CCC2)Oc2c1cc(CC(C)(C)C)nc2N(C)C` [compound 444]: the IC50 worked out at 298 nM in series [1], 777 nM in series [2], 7500 nM on CYP3A4 (CYP3A) and 9400 nM against CYP2D6. This compound had an RLM in series [3] of 662 µL/min/mg. In series [4], this compound returned an HLM of 399 µL/min/mg.

Take `COCC(=O)N[C@@H](Cc1ccc2c(c1)OCO2)[C@H](O)CN[C@H]1CC2(CCC2)Oc2ncc(CCC(F)(F)F)cc21` [compound 445]: the IC50 in series [1] was 754 nM; in series [2] it was 621 nM; at CYP3A4 (CYP3A), 200 nM; at CYP2D6, 4100 nM. This compound yielded an RLM in series [3] of 121 µL/min/mg. The HLM in series [4] was 24 µL/min/mg.

Turning to `COCC(=O)N[C@@H](Cc1ccc2c(c1)OCO2)[C@H]1CN([C@H]2CC3(CCC3)Oc3ncc([C@H](F)C(C)(C)C)cc32)C(=O)O1` [compound 446], the IC50 was 6320 nM in series [1], more than 10000 nM in series [2], 200 nM on CYP3A4 (CYP3A) and 1200 nM on CYP2D6. Besides, the RLM in series [3] is 106 µL/min/mg. The same compound displayed an HLM in series [4] of 150 µL/min/mg.

Turning to `CC(C)(C)Cc1cnc2c(c1)[C@@H](NC[C@@H](O)[C@H](Cc1ccc3c(c1)OCO3)NC(=O)[C@H]1CCC(=O)C1)CC1(CCC1)O2` [compound 450], the IC50 in series [1] is 150 nM; in series [2], 183 nM; against CYP3A4 (CYP3A), 400 nM; on CYP2D6 it was 8600 nM. This compound returned an RLM in series [3] of 170 µL/min/mg. This compound also showed an HLM in series [4] of 76 µL/min/mg.

Take `COCC(=O)N[C@@H](Cc1ccc(F)cc1)[C@H](O)CN[C@H]1CC2(CCC2)Oc2c1cc(CC(C)(C)C)nc2-c1nccs1` [compound 451]: the IC50 in series [1] is 19 nM; in series [2] it was 271 nM; on CYP3A4 (CYP3A), 600 nM; on CYP2D6, 9400 nM. Moreover, in series [3], the RLM came out at 682 µL/min/mg. The compound further yielded an HLM in series [4] of 248 µL/min/mg.

On to `CO[C@H](C)C(=O)N[C@@H](Cc1ccc2c(c1)OCO2)[C@H](O)CN[C@H]1CC2(CCC2)Cc2sc(CC(C)(C)C)cc21` [compound 455], for which the IC50 in series [1] came to 49 nM; in series [2], 231 nM; on CYP3A4 (CYP3A), 2600 nM; against CYP2D6 it was 5500 nM. For the same compound, in series [3], the RLM stood at 201 µL/min/mg. In series [4], this compound displayed an HLM of 211 µL/min/mg.

As to `CO[C@@H](C)C(=O)N[C@@H](Cc1ccc2c(c1)OCO2)[C@H](O)CN[C@H]1CC2(CCC2)Cc2sc(CC(C)(C)C)cc21` [compound 456], the IC50 in series [1] was 359 nM; in series [2] it was 723 nM; on CYP3A4 (CYP3A), 900 nM; against CYP2D6, 3100 nM. In series [3], this compound yielded an RLM of 97 µL/min/mg. The compound also returned an HLM in series [4] of 74 µL/min/mg.

For `CC(=O)C(C)(C)C(=O)N[C@@H](Cc1ccc2c(c1)OCO2)[C@H](O)CN[C@H]1CC2(CCC2)Oc2ncc(CC(C)(C)C)cc21` [compound 457], the IC50 in series [1] came to 792 nM; in series [2] it was 905 nM; against CYP3A4 (CYP3A), 100 nM; against CYP2D6, 2400 nM. In series [3], this compound came in with an RLM of 90 µL/min/mg. The compound further came in with an HLM in series [4] of 44 µL/min/mg.

As for `COCC(=O)N[C@@H](Cc1cc(F)cc(F)c1)[C@H](O)CN[C@H]1CC2(CCC2)Oc2c1cc(CC(C)C)cc2-n1ccnc1` [compound 458], the IC50 in series [1] was found to be 17 nM; in series [2] it was 12 nM; against CYP3A4 (CYP3A), 100 nM; against CYP2D6, 900 nM. Moreover, in series [3], the RLM is 188.5 µL/min/mg. In addition, in series [4], the HLM stood at 25.5 µL/min/mg.

For `CO[C@H](C)C(=O)N[C@@H](Cc1cc(F)cc(F)c1)[C@H](O)CN[C@H]1CC2(CCC2)Oc2c(-c3nccs3)cc(CC(C)C)cc21` [compound 459], the IC50 in series [1] came out at 4 nM; in series [2], 46 nM; against CYP3A4 (CYP3A), 400 nM; at CYP2D6, 10200 nM. For the same compound, the RLM in series [3] is 399 µL/min/mg. This compound returned an HLM in series [4] of 399 µL/min/mg.

Regarding `COCC(=O)N[C@@H](Cc1cc(F)cc(F)c1)[C@H](O)CN[C@H]1CC2(CCC2)Oc2c(-c3nccs3)cc(CC(C)C)cc21` [compound 460], the IC50 in series [1] was 1 nM; in series [2], 28 nM; against CYP3A4 (CYP3A), 800 nM; on CYP2D6, 3900 nM. The same compound had an RLM in series [3] of 775 µL/min/mg. Also, the HLM in series [4] was found to be 775 µL/min/mg.

As to `COCC(=O)N[C@@H](C[C@@H]1CCOC1)[C@H](O)CN[C@H]1CC2(CCC2)Oc2ncc(CC(C)(C)C)cc21` [compound 462], the IC50 in series [1] is 432 nM; in series [2], 649 nM; against CYP3A4 (CYP3A) it was 8500 nM; against CYP2D6 it was 16900 nM. Also, in series [3], the RLM was 68 µL/min/mg. In addition, in series [4], the HLM was determined as 107 µL/min/mg.

For the compound `COCC(=O)N[C@@H](Cc1cc(F)cc(F)c1)[C@H](O)CN[C@H]1CC2(CCC2)Oc2c(-c3nccs3)cc(CC(C)(C)C)cc21` [compound 463], the IC50 turned out to be 3 nM in series [1], 48 nM in series [2], 1100 nM at CYP3A4 (CYP3A) and 7200 nM against CYP2D6. The RLM in series [3] is 662 µL/min/mg. The compound also came in with an HLM in series [4] of 682 µL/min/mg.

Turning to `COCC(=O)N[C@@H](Cc1cc(F)cc(F)c1)[C@H](O)CN[C@H]1CC2(CCC2)Oc2c(Br)cc(CC(C)(C)C)cc21` [compound 464], the IC50 in series [1] amounted to 4 nM; in series [2] it was 91 nM; against CYP3A4 (CYP3A) it was 1500 nM; at CYP2D6 it was 11500 nM. The compound further displayed an RLM in series [3] of 364 µL/min/mg. The same compound had an HLM in series [4] of 463 µL/min/mg.

In the case of `CC(=O)N[C@@H](Cc1cc(F)cc(F)c1)[C@H](O)CN[C@H]1CC2(CCC2)Oc2c1cc(CC(C)(C)C)nc2-n1ccnc1` [compound 465], the IC50 in series [1] came to 19 nM; in series [2], 32 nM; against CYP3A4 (CYP3A) it was 100 nM; against CYP2D6, 1000 nM. For the same compound, the RLM in series [3] came to 51.5 µL/min/mg. For the same compound, the HLM in series [4] was 18.5 µL/min/mg.

Take `CC(=O)CC(=O)N[C@@H](Cc1cccc(F)c1)[C@H](O)CN[C@H]1CC2(CCC2)Oc2ncc(CC(C)(C)C)cc21` [compound 466]: the IC50 in series [1] stood at 4 nM; in series [2] it was 8 nM; on CYP3A4 (CYP3A), 1200 nM; on CYP2D6, 8900 nM. This compound gave an RLM in series [3] of 165 µL/min/mg. In series [4], the HLM is 296 µL/min/mg.

`CC(=O)C(C)(C)C(=O)N[C@@H](Cc1cccc(F)c1)[C@H](O)CN[C@H]1CC2(CCC2)Oc2ncc(CC(C)(C)C)cc21` [compound 467]: the IC50 came to 63 nM in series [1], 209 nM in series [2], 400 nM against CYP3A4 (CYP3A) and 7300 nM at CYP2D6. The RLM in series [3] was 292 µL/min/mg. The HLM in series [4] was determined as 399 µL/min/mg.

Consider `COCC(=O)N[C@@H](Cc1ccc(F)cc1)[C@H](O)CN[C@H]1CC2(CCC2)Oc2nc(C)c(CC(C)(C)C)cc21` [compound 468], for which the IC50 was found to be 97 nM in series [1], 108 nM in series [2], 500 nM against CYP3A4 (CYP3A) and 9600 nM against CYP2D6. This compound returned an RLM in series [3] of 662 µL/min/mg. The same compound gave an HLM in series [4] of 736 µL/min/mg.

As for `CC(=O)N[C@@H](C[C@H]1CCOC1)[C@H](O)CN[C@H]1CC2(CCC2)Oc2ncc(CC(C)(C)C)cc21` [compound 469], the IC50 is 137 nM in series [1], 162 nM in series [2], 16400 nM against CYP3A4 (CYP3A) and not below 27000 nM against CYP2D6. Also, the RLM in series [3] was found to be 35 µL/min/mg. Further, the HLM in series [4] came out at 60 µL/min/mg.

`COCC(=O)N[C@@H](Cc1cccc(C#N)c1)[C@H](O)CN[C@H]1CC2(CC(F)(F)C2)Oc2ncc(CC(C)(C)C)cc21` [compound 470]: the IC50 was 4 nM in series [1], 14 nM in series [2], 1100 nM at CYP3A4 (CYP3A) and 5800 nM against CYP2D6. Also, the RLM in series [3] is 560 µL/min/mg. The compound further registered an HLM in series [4] of 579 µL/min/mg.

Consider `CO[C@H](C)C(=O)N[C@@H](Cc1cccc(C#N)c1)[C@H](O)CN[C@H]1CC2(CC(F)(F)C2)Oc2ncc(CC(C)(C)C)cc21` [compound 471], for which the IC50 in series [1] turned out to be 4 nM; in series [2] it was 12 nM; on CYP3A4 (CYP3A), 1100 nM; against CYP2D6, 10300 nM. Also, the RLM in series [3] is 536 µL/min/mg. The compound also returned an HLM in series [4] of 569 µL/min/mg.

Turning to `CC(C)(C)Cc1cnc2c(c1)[C@@H](NC[C@@H](O)[C@H](Cc1cccc(C#N)c1)NC(=O)[C@H]1CCCO1)CC1(CC(F)(F)C1)O2` [compound 472], the IC50 in series [1] was 5 nM; in series [2] it was 15 nM; against CYP3A4 (CYP3A), 800 nM; on CYP2D6 it was 7100 nM. For the same compound, the RLM in series [3] was found to be 775 µL/min/mg. Moreover, the HLM in series [4] stood at 736 µL/min/mg.

As to `COCC(=O)N[C@@H](Cc1ccnc(OC)c1)[C@H](O)CN[C@H]1CC2(CCC2)Oc2ncc(CC(C)(C)C)cc21` [compound 474], the IC50 in series [1] turned out to be 13 nM; in series [2], 22 nM; against CYP3A4 (CYP3A), 2000 nM; against CYP2D6, 6500 nM. In series [3], this compound showed an RLM of 174 µL/min/mg. The HLM in series [4] turned out to be 172 µL/min/mg.
